Literature values as cited in patent US20210121480A1, “STABLE PHARMACEUTICAL COMPOSITIONS CONTAINING ESTRADIOL AND PROGESTERONE FOR ORAL ADMINISTRATION” (SLAYBACK PHARMA LLC, priority 2019, published 2021).
Values after ≈ are worked out from the molar mass of the structure shown.

Settings: reported

- aqueous solubility: 7 ± 0 µg/mL (≈ 22.3 µM)
SMILES: CC(=O)[C@H]1CC[C@H]2[C@@H]3CCC4=CC(=O)CC[C@]4(C)[C@H]3CC[C@]12C [Progesterone]
